How the values were obtained:
[1] = tested on: normal human epidermal cells, keratinocyte; test: β-endorphin secretion from normal human epidermal keratinocytes (β-endorphin EIA kit); type: cell-based; conditions: for amount of β-endorphin secreted from keratinocyte: 10 μM, six hours, compared to control group (FIG. 1, FIG. 2); for β-endorphin production effect: six hours (FIG. 3)
Method: First, normal human epidermal cells, keratinocyte (Gibco), were cultured from a 6-well plate to a confluence point at 37° C. under 5% CO2 culture conditions. In an embodiment of the present disclosure, a keratinocyte-SFM (Gibco) medium was treated with 10 μM of each of hydroxy-α-sanshool (CHEMFACES®; Example 1), hydroxy-γ-sanshool (Chengdu Biopurify Phytochemicals Ltd.; Example 2), hydroxy-β-sanshool (Chengdu Biopurify Phytochemicals Ltd.; Example 3), hydroxy-ε-sanshool (Chengdu Biopurify Phytochemicals Ltd.; Example 4), cannabidiol (CBD) (Sigma-Aldrich®; Comparative Example 1), honokiol (Sigma-Aldrich®; Comparative Example 2), magnolol (Sigma-Aldrich®; Comparative Example 3), and palmitoylethanolamide (PEA) (Sigma-Aldrich®; Comparative Example 4), which are known as CB2 agonists as Comparative Examples, and cultured at 37° C. for six hours under 5% CO2 culture conditions. Afterwards, each medium was collected, and a β-endorphin EIA kit (EK-022-14, Phoenix pharmaceuticals, Belmont, Calif.) was used to quantify an amount of β-endorphin secreted from keratinocyte in each medium. Student t-test was used for statistical significance between specimens, and when a value of p-value is less than or equal to 0.05, it was analyzed as statistically significant. (*p<0.05, **p<0.01, ***p<0.001)
First, normal human epidermal cells, keratinocyte (Gibco), were cultured from a 6-well plate to a confluence point at 37° C. under 5% CO2 culture conditions. […] Afterwards, each medium was collected, and a β-endorphin EIA kit (EK-022-14, Phoenix pharmaceuticals, Belmont, Calif.) was used to quantify an amount of β-endorphin secreted from keratinocyte in each medium. Student t-test was used for statistical significance between specimens, and when a value of p-value is less than or equal to 0.05, it was analyzed as statistically significant. (*p<0.05, **p<0.01, ***p<0.001)

[2] = tested on: CB2 receptor; conditions: intraperitoneal administration; cited from earlier work
[3] = sanshool-containing drug ingested; cited from earlier work
[4] = tested on: human-derived keratinocyte, HaCaT; test: IL-1b release from HaCaT under poly (I:C)-induced allergic contact dermatitis conditions (ELISA); type: cell-based; conditions: 10 μM, poly (I:C) 15 ng/ml, 24 hours
Method: First, a human-derived keratinocyte, HaCaT, was dispensed in a 24-well plate together with a Dulbecco's modified eagle's medium (DMEM) containing 10% fetal bovine serum (FBS), and cultured at 37° C. under 5% CO2 culture conditions for 24 hours. Afterwards, while inducing allergic contact dermatitis conditions to the HaCat with 15 ng/ml of poly (I:C), each of Example 1 (hydroxy-α-sanshool) and Example 2 (hydroxy-γ-sanshool), which were each dissolved in dimethyl sulfoxide (DMSO), were treated at 10 μM and dissolved in the medium. After 24 hours, each medium was collected, and IL-1b ELISA kit (R&D systems) was used to measure an amount of cytokine IL-1b according to a manufacturer's method.

| Compound | amount of β-endorphin secreted from keratinocyte [1] | IL-1b [4] [pg/mL] | further results |
| --- | --- | --- | --- |
| C=CCc1ccc(O)c(-c2ccc(O)c(CC=C)c2)c1 [honokiol, reference compound] | further decrease in an amount of β-endorphin secretion compared to a control group |  |  |
| CN1CCCCC1Cn1cc(C(=O)c2cc([N+](=O)[O-])ccc2I)c2ccccc21 (centres unmarked) [AM1241] |  |  | endorphin secretion [2]: had an effect on inducing endorphin secretion |
| sanshool |  |  | presence in plasma [3]: remained in plasma; β-endorphin production effect ([1]; 0.00006 wt %): β-endorphin production effect was not shown; β-endorphin production effect ([1]; 0.006 wt % as printed): production of β-endorphin was induced |
| C/C=C/C=C/C=C\CC/C=C/C(=O)NCC(C)(C)O [Example 1, hydroxy-α-sanshool] |  | 11.29 |  |
| C=CCc1ccc(O)c(-c2cc(CC=C)ccc2O)c1 [magnolol, reference compound] | further decrease in an amount of β-endorphin secretion compared to a control group |  |  |
| C/C=C/C=C/C=C\CC/C=C/C=C/C(=O)NCC(C)(C)O [Example 2, hydroxy-γ-sanshool] |  | 11.2 |  |
